Assay results published in PubChem BioAssay (NCI).
Several values for one entry are separate records, joined by “and”; a condition that tells them apart may be missing. Equal values may be shown once.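 The compound was tested at five concentrations on cells cultured in 96-well plates, with a 48-hour exposure period. Abbreviation: GI50, concentration required for 50% inhibition of growth. Definition used: TGI = concentration required for complete inhibition of growth.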

How the values were obtained:
Assay in all cases: growth of human tumour cells (NCI), 48 h
UO-31 renal = system: UO-31 renal
PC-3 prostate = system: PC-3 prostate
OVCAR-5 ovarian = system: OVCAR-5 ovarian
HS 578T breast = system: HS 578T breast
RXF 393 renal = system: RXF 393 renal
SN12C renal = system: SN12C renal
SNB-19 CNS = system: SNB-19 CNS
SK-OV-3 ovarian = system: SK-OV-3 ovarian
EKVX NSCLC = system: EKVX NSCLC
M14 melanoma = system: M14 melanoma

SMILES	GI50 (UO-31 renal) [µM]	TGI (UO-31 renal)	GI50 (PC-3 prostate) [µM]	TGI (PC-3 prostate) [µM]	GI50 (OVCAR-5 ovarian) [µM]	TGI (OVCAR-5 ovarian)	GI50 (HS 578T breast) [µM]	TGI (HS 578T breast) [µM]	GI50 (RXF 393 renal) [µM]	TGI (RXF 393 renal)	GI50 (SN12C renal) [µM]	TGI (SN12C renal)	GI50 (SNB-19 CNS) [µM]	TGI (SNB-19 CNS)	GI50 (SK-OV-3 ovarian) [µM]	TGI (SK-OV-3 ovarian)	GI50 (EKVX NSCLC) [µM]	TGI (EKVX NSCLC)	GI50 (M14 melanoma) [µM]	TGI (M14 melanoma)
O=C(Nc1ccccc1O)c1ccc(Oc2cccc(C(=O)Nc3ccccc3O)c2)cc1	1.36	6.39 µM	1.84	10.4	12.9	35 µM	2.05	12.2	1.81	6.42 µM	2.84	17.9 µM	2.08	14.4 µM	4.42	17.2 µM				
CC(=O)OCC1OC(OC2CC3C(C)(C)C(O)CC[C@]3(C)C3CCC45CC4(CC[C@H]5C(C)CC(O)C4OC4(C)C)[C@]23C)C(O)C(O)C1O (stereo not given in full)	17.7	15.4 µM and 31.6 µM			15.8	16.1 µM and 29.2 µM			9.7	10.7 µM and 38.5 µM		15.2 µM and 21.6 µM	5.14	15 µM and 16.9 µM	15.7	15 µM and 29.2 µM	13.7	15.9 µM and 29.2 µM	5.37	16 µM and 17.2 µM
O=C(C(=O)N1CC2C=CC1CC2)c1c[nH]c2ccccc12 (stereo not given)		> 100 µM				> 100 µM				> 100 µM		> 100 µM		> 100 µM		> 100 µM				> 100 µM
C1OC1CO[C@@H]1CO[C@H]2[C@@H]1OC[C@H]2OCC1CO1 (stereo not given in full)		> 100 µM				> 100 µM				> 100 µM		> 100 µM		> 100 µM		> 100 µM		> 100 µM		> 100 µM
O=C1c2c(n(Cc3ccccc3)c(=O)n2Cc2ccccc2)C(=O)N1Cc1ccccc1		> 100 µM				> 100 µM				> 100 µM		> 100 µM		> 100 µM		> 100 µM		> 100 µM		> 100 µM
CCN(CCCl)CCCNc1c2ccccc2nc2ccc(OC)cc12		2060 µM			286				601		274		205		446		557		213	
c1ccc2c(c1)[nH]c1cnc3c4cccnc4[nH]c3c12		33 µM				40.3 µM				34.7 µM		34.1 µM		37.3 µM				39 µM		30.1 µM
COc1ccc(-c2ccc(-c3ccc(-c4ccc(C(=N)N)cc4)s3)s2)cc1OC	14.4	32.4 µM	2.78	9.39	1.44	3.6 µM	21.2	48.1	11.2	34.6 µM	3.6	21.8 µM	3.01	16.6 µM	14.5	37.3 µM			3.16	11.3 µM
CC#CC1/C(=C\C(=O)OC)CCCC1O (stereo not given)		> 100 µM				> 100 µM				> 100 µM		> 100 µM		> 100 µM		> 100 µM		> 100 µM		> 100 µM
CCCCOC(=O)NC(=O)c1cn(CCSCCOC(=O)NCCCCCCNC(=O)OCCSCCn2cc(C(=O)NC(=O)OCCCC)c(=O)[nH]c2=O)c(=O)[nH]c1=O		> 100 µM				> 100 µM				> 100 µM		> 100 µM		> 100 µM		> 100 µM		> 100 µM		> 100 µM
COc1ccc2c(c1)C(c1ccccc1Cl)=Nc1c(n[nH]c1C)N2	13.9	> 25 µM	> 22.7	> 25	> 25	> 25 µM	3.43	20.3	3.7	> 25 µM	> 20.3	> 25 µM	> 25	> 25 µM	> 25	> 25 µM			> 25	> 25 µM
CCOC(=O)C1SC(=Nc2ccc(Cl)c(Cl)c2)N=C1C (stereo not given)		> 100 µM				> 100 µM				52.3 µM		53 µM		> 100 µM		> 100 µM		> 100 µM		> 100 µM
CC(=O)CCCCO		> 100 µM				> 100 µM				> 100 µM		> 100 µM		> 100 µM		> 100 µM		> 100 µM		> 100 µM
COc1cc(-c2nc3sc4c(c3c(=O)[nH]2)CCCCCC4)cc(OC)c1OC	2.07	> 33.2 µM	1.5	> 33.2	2.23	> 33.2 µM	0.922	9.76	0.636	2.55 µM	2.14	> 33.2 µM	1.56	> 33.2 µM	0.89	16.4 µM			0.831	> 33.2 µM
N#CC1=C(N)NC(=O)NC12Nc1ccccc1S2 (stereo not given)	36.2	> 100 µM	28	> 57.9	27	> 72.3 µM	25.5	> 70.4	16.9	> 52.7 µM	17.6	50.8 µM	44.5	> 100 µM	30.3	> 70.7 µM			19.7	42.5 µM
CCOC(=O)C(=Cc1ccc(C(=O)OC)cc1)C(=O)OCC						21.9 µM						5 µM		6.47 µM		26.4 µM		26.9 µM		3.36 µM
CN1CC(C(=O)C2C(=O)c3ccccc3C2=O)C(=O)C(=O)C(C(=O)C2C(=O)c3ccccc3C2=O)C1 (stereo not given)		> 100 µM				> 100 µM						> 100 µM		> 100 µM		> 100 µM				> 10 µM
S=C1Nc2ccc(Cl)cc2C2(c3ccccc3)N3CCN=C3NN12 (stereo not given)	37.5	> 100 µM	39.3	> 100	82.7	> 100 µM					35.3	> 100 µM	36.9	> 100 µM	> 100	> 100 µM	55.7	> 100 µM	39.9	> 100 µM
CCN1c2ccccc2C(Cl)(c2ccc(N(C)C)cc2)c2ccccc21	1.91	5.27 µM	2.18	9.88	17.7	34.9 µM	4.89	27.3			4.88	19.2 µM	5.44	19.1 µM	4.97	18.2 µM	7.98	> 100 µM	5.97	20.2 µM
CC(=O)OC1CC2(O)C3CCC4CC(O)CCC4(C)C3CCC2(C)C1C1=CC(=O)OC1 (stereo not given)		0.27 µM		0.373		0.451 µM		> 100				0.16 µM		1.25 µM		0.642 µM		0.159 µM		0.367 µM

SMILES	GI50 (UO-31 renal) [µM]	TGI (UO-31 renal)	GI50 (PC-3 prostate) [µM]	TGI (PC-3 prostate) [µM]	GI50 (OVCAR-5 ovarian) [µM]	TGI (OVCAR-5 ovarian)	GI50 (HS 578T breast) [µM]	TGI (HS 578T breast) [µM]	GI50 (RXF 393 renal) [µM]	TGI (RXF 393 renal)	GI50 (SN12C renal) [µM]	TGI (SN12C renal)	GI50 (SNB-19 CNS) [µM]	TGI (SNB-19 CNS)	GI50 (SK-OV-3 ovarian) [µM]	TGI (SK-OV-3 ovarian)	GI50 (EKVX NSCLC) [µM]	TGI (EKVX NSCLC)	GI50 (M14 melanoma) [µM]	TGI (M14 melanoma)
N#CCc1ncc(-c2ccc(C(F)(F)F)cc2)c(NC2CCCCCC2)n1	> 10	> 10 µM	> 10	> 10	> 10	> 10 µM	> 10	> 10	> 10	> 10 µM	> 10	> 10 µM	> 10	> 10 µM	> 10	> 10 µM			> 10	> 10 µM
NC(=O)C(c1ccccc1)N1CCOCC1 (stereo not given)		> 100 µM				> 100 µM				> 100 µM		> 100 µM				> 100 µM				> 100 µM
Cc1cc(NS(=O)(=O)c2ccc(NC(=O)c3cccc4c(Nc5ccc(S(=O)(=O)N=C(N)N)cc5)c5ccccc5nc34)cc2)no1		> 100 µM				> 100 µM				> 100 µM		> 100 µM		> 100 µM		> 100 µM		> 100 µM		> 100 µM
O=C(N/N=C/c1ccccc1O)C(=O)Nc1ccc(F)cc1	2.18	54.1 µM	4.21	> 100	6.69	> 100 µM	33.8	> 100	9.93	> 100 µM	6.46	> 100 µM	4.91	> 100 µM	10.3	> 100 µM			4.87	40.4 µM
COc1ccc(/C=C\c2cc(OC)c(OC)c(OC)c2)cc1OC(=O)CCC(=O)O	< 0.0001	> 100 µM		> 100				> 100				> 100 µM		> 100 µM	0.0442	> 100 µM	51.5	> 100 µM		
CC(C)(C)C(=O)ON1N=NC2C3CC(OCc4ccccc4)(OCc4ccccc4)C(O3)C21 (stereo not given)		49.7 µM				> 100 µM				36.5 µM		39.3 µM				> 100 µM				85.7 µM
O=C1CN(C(=O)c2ccccc2)Cc2[nH]c3ccccc3c21		> 100 µM				> 100 µM				> 100 µM		> 100 µM		> 100 µM		> 100 µM		> 100 µM		> 100 µM
COc1ccc(/C=C/C(=O)Oc2cc(O)cc(O)c2)cc1		> 100 µM		> 100		> 100 µM				> 100 µM		> 100 µM		> 100 µM		> 100 µM		> 100 µM		> 100 µM
Fc1ccc(C2SCc3nc4ccccc4n32)cc1 (stereo not given)		70.1 µM				99.4 µM				70.7 µM		> 100 µM		9.64 µM		> 100 µM		> 100 µM		> 100 µM
CCCCCCCCCCCCSC(=N)N	5.71	19.8 µM	9.13	23	12.4	25.3 µM	17.3	38.8	6.64	26.6 µM	8.21	21.4 µM	15.7	45.7 µM	17.4	33.5 µM			5.16	17.2 µM
COc1ccccc1NC(=O)C1=C(C)NC(C)=C(C(=O)Nc2ccccc2OC)C1c1ccc(C)cc1		> 100 µM				> 100 µM				> 100 µM		> 100 µM		> 100 µM		> 100 µM		> 100 µM		> 100 µM
Cc1cc(=O)oc2cc(OCc3c(F)cccc3Cl)ccc12		> 100 µM		> 100		> 100 µM		99.1		27.5 µM		> 100 µM		> 100 µM						> 100 µM
O=c1cc(-c2ccccc2)[nH]n1-c1nc2ccccc2[nH]1	5.68	67.6 µM	4.22	44.5	12.5	> 100 µM	7.47	> 100	3.94	34.8 µM	6.84	> 100 µM	4.89	> 100 µM	8.58	> 100 µM			2.71	> 100 µM
CCN(c1ccc(Br)cc1)c1c(Br)c(=O)nc2ccccn12		> 100 µM				> 100 µM						> 100 µM		> 100 µM		> 100 µM		> 100 µM		> 100 µM
O=C1C(=O)N(c2ccc(Cl)cc2Cl)C(=O)C(=O)C1c1nc2ccccc2o1		> 100 µM				> 100 µM						> 100 µM		> 100 µM		> 100 µM		> 100 µM		> 100 µM
CC(=O)OC1(C)C(=O)OC1(C)C(C)=O (stereo not given)		> 100 µM				> 100 µM				> 100 µM		> 100 µM		> 100 µM		> 100 µM		> 100 µM		> 100 µM
O=C(CC(=O)N1N=C(N2c3ccccc3Sc3ccccc32)CC1c1ccccc1)Nc1ccc(Cl)cc1 (stereo not given)		> 100 µM				> 100 µM				> 100 µM		> 100 µM		> 100 µM		> 100 µM		> 100 µM		> 100 µM
NC(N)=NNC(=O)CCCCCCCC(=O)NN=C(N)N		> 100 µM				> 100 µM				> 100 µM		> 100 µM		> 100 µM		> 100 µM		> 100 µM		> 100 µM
O=C(OCC1CO1)c1cccs1 (stereo not given)		> 100 µM				> 100 µM				> 100 µM		> 100 µM		> 100 µM		> 100 µM		> 100 µM		> 100 µM
COc1ccc2c(c1)C(=O)/C(=C/c1ncc([N+](=O)[O-])n1C)O2	0.494	2.53 µM	1.25	5.46	1.75	5.67 µM	0.74	10.9	1.01	3.03 µM	0.292	1.3 µM	1.26	6.08 µM	2.11	6.43 µM			0.244	0.737 µM
